Where no end group is shown, it is not given here.

The test system of one data set is human THP-1 monocytes. As to conditions: taken from literature; cited from earlier work.
A further data set has as its system L. ivanovii (Li4pVS2). As to conditions: liquid growth inhibition (CLSI), 10^6 CFU/mL in brain heart infusion (BHI) medium, 37 °C, 18–20 h, OD 630 nm; mean of three independent experiments in triplicate. As for the experimental part: Antibacterial activity of temporin-SHe was evaluated against Gram-positive bacteria including S. aureus strains (ATCC 25923, ST1065), antibiotic-resistant S. aureus strains (ATCC 43300, ATCC BAA-44), E. faecalis (ATCC 29212), B. megaterium, and L. ivanovii (Li4pVS2), and Gram-negative bacteria including E. coli strains (ATCC 25922, ATCC 35218, ML-35p), S. enterica (serotype Enteritidis), P. aeruginosa (ATCC 27853), A. baumannii (ATCC 19606) and K. pneumoniae (ATCC 13883). Antifungal activity was evaluated against C. albicans (ATCC 90028), C. parapsilosis (ATCC 22019) and S. cerevisiae. ATCC strains were purchased from American-Type Culture Collection (ATCC, Virginia, VA, USA). Antiparasitic activity was determined against promastigotes of several species of Leishmania responsible for visceral, cutaneous and mucocutaneous leishmaniases: L. infantum (strain MHOM/MA/67/ITMAP-263), L. major (strain MHOM/SU/73/5-ASKH), and L. braziliensis (strain MHOM/BR/75/M2904), respectively. Cytotoxicity was assessed against human red blood cells and THP-1 monocytes. Peripheral blood was obtained from healthy adult donors (Établissement Français du Sang, Paris, France). All donors signed informed consent allowing the use of their blood for research purposes.
Antimicrobial activity was assessed with a liquid growth inhibition assay performed according to a previously described protocol using the Clinical and Laboratory Standards Institute (CLSI) guidelines. Briefly, in 96-well microtitration plates, mid-log-phase bacteria diluted to 10^6 CFU/mL in Mueller–Hinton (MH) broth were added to different concentrations of synthetic temporin-SHe (1–200 µM, final concentrations) and incubated at 37 °C for 18–20 h, under shaking (150 rpm). For E. faecalis, L. ivanovii and yeasts/fungi, 10^6 CFU/mL suspensions were prepared in LB broth, brain heart infusion (BHI) medium and Yeast Peptone Dextrose (YPD) medium, respectively, and incubation was performed at 30 °C for yeasts/fungi. […] MIC values represent the average of three independent experiments, each performed in triplicate with negative (no peptide) and positive (formaldehyde 0.7%) controls.

For the next data set, the system named is Nocardia asteroides. The arrangement: method as in 2 sources, ref 48 = [48]; PMID 28402481; doi:10.1093/abbs/gmx032; 48. Wang X. Ren S. Guo C. Zhang W. Zhang X. Zhang B. Li S. Ren J. Hu Y. Wang H. Identification and functional analyses of novel antioxidant peptides and antimicrobial peptides from skin secretions of ||| ref 49 = [49]; PMID 25066917; doi:10.1016/j.biochi.2014.07.013; 49. Guo C. Hu Y. Li J. Liu Y. Li S. Yan K. Wang X. Liu J. Wang H. Identification of multiple peptides with antioxidant and antimicrobial activities from skin and its secretions of Hylarana taipehensis. Particulars: cited from earlier work.

The test system of another data set is E. faecalis. More on the design: method as in 2 sources, ref 48 = [48]; PMID 28402481; doi:10.1093/abbs/gmx032; 48. Wang X. Ren S. Guo C. Zhang W. Zhang X. Zhang B. Li S. Ren J. Hu Y. Wang H. Identification and functional analyses of novel antioxidant peptides and antimicrobial peptides from skin secretions of ||| ref 49 = [49]; PMID 25066917; doi:10.1016/j.biochi.2014.07.013; 49. Guo C. Hu Y. Li J. Liu Y. Li S. Yan K. Wang X. Liu J. Wang H. Identification of multiple peptides with antioxidant and antimicrobial activities from skin and its secretions of Hylarana taipehensis. As to conditions: cited from earlier work.

The next data set relates to S. aureus. More on the design: method as in 3 sources, one per row (each row's own in cited_ref): ref 46 = [46]; PMID 14499272; doi:10.1016/S0196-9781(03)00193-1; 46. Ali M.F. Knoop F.C. Vaudry H. Conlon J.M. Characterization of novel antimicrobial peptides from the skins of frogs of the Rana esculenta complex Peptides 2003 24 955 961 10.1016/S0196-9781(03)0019 ||| ref 48 = [48]; PMID 28402481; doi:10.1093/abbs/gmx032; 48. Wang X. Ren S. Guo C. Zhang W. Zhang X. Zhang B. Li S. Ren J. Hu Y. Wang H. Identification and functional analyses of novel antioxidant peptides and antimicrobial peptides from skin secretions of ||| ref 49 = [49]; PMID 25066917; doi:10.1016/j.biochi.2014.07.013; 49. Guo C. Hu Y. Li J. Liu Y. Li S. Yan K. Wang X. Liu J. Wang H. Identification of multiple peptides with antioxidant and antimicrobial activities from skin and its secretions of Hylarana taipehensis. As to conditions: cited from earlier work.

The test system of another data set is E. coli. The arrangement: method as in PMID 14499272. Particulars: cited from earlier work.
The subject of data set [1] is Gram-negative bacteria (E. coli, P. aeruginosa, and K. pneumoniae). More on the design: method as in PMID 28402481. Particulars: cited from earlier work.
In data set [2] the test system is Candida species (C. albicans and C. glabrata). More on the design: method as in PMID 28402481. Particulars: cited from earlier work.
A further data set deals with L. mexicana amastigotes. As to conditions: cited from earlier work. An excerpt:
Temporin-SHe represents an additional temporin with antiparasitic properties. This peptide was able to kill promastigote forms of the human parasite Leishmania, responsible for visceral (L. infantum), cutaneous (L. major) and muco-cutaneous (L. braziliensis) leishmaniasis. […] Until today, only six temporins (Ta, Tb, SHa, SHd, Tl and Tf) have been described as antiparasitic peptides and very few AMPs of other families are active against parasites (The Antimicrobial Peptide ...

Regarding “FLPAALAGIGGILGKLF-NH2 [Temporin-SHd, reference compound]”, the “LC50 (lethal concentration 50)” value with human THP-1 monocytes is listed as 66 µM. Moreover, the MIC against L. ivanovii (Li4pVS2) is 10 µM.

Regarding “FLPLLFGALSTLLPKIF-NH2 [Temporin-TP3, temporin isolated from skin secretions of Hylarana taipehensis]”, the MIC with Nocardia asteroides is 12.5 µM; in the data set with E. faecalis it was 50 µM; in the data set with S. aureus, 25 µM.

As for “FLPVIAGLLSKLF-NH2 [Temporin-1Ec, temporin isolated from Pelophylax lessonae/ridibundus]”, the figures for the MIC with E. coli and in the data set on S. aureus were greater than 100 µM and 8 µM, respectively.

As to “FLPFLAGLFGKIF-NH2 [Temporin-HB2, temporin isolated from the Hubei Frog Pelophylax hubeiensis]”, in data set [1], the “activity against Gram-negative bacteria” value is “No activity”. For the same substance, the MIC was 75 µM with Nocardia asteroides, 19 µM with E. faecalis and 150 µM with S. aureus. Besides, in data set [2], the “activity against Candida species” value is on record as “No activity”.

As for “FLSGIVGMLGKLF-NH2 [Temporin-SHa, 13-residue temporin-SH from Pelophylax saharicus]”, the “less efficiency against L. mexicana amastigotes (compared with promastigotes)” value in the data set on L. mexicana amastigotes was “approximately 10 fold”.
